Measurements taken from PubChem BioAssay (NCI).
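The concentration for 50% growth inhibition is given as GI50. The concentration for full growth arrest is given as TGI.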

Tests used:
Assay in all cases: NCI anticancer screen, dose series, 384-well format
T-47D breast = test system: T-47D breast
SR leukemia = test system: SR leukemia
SK-MEL-28 melanoma = test system: SK-MEL-28 melanoma
PC-3 prostate = test system: PC-3 prostate
NCI/ADR-RES ovarian = test system: NCI/ADR-RES ovarian
CCRF-CEM leukemia = test system: CCRF-CEM leukemia
OVCAR-5 ovarian = test system: OVCAR-5 ovarian
UACC-257 melanoma = test system: UACC-257 melanoma
SNB-19 CNS = test system: SNB-19 CNS
DU-145 prostate = test system: DU-145 prostate
786-0 renal = test system: 786-0 renal
HCT-116 colon = test system: HCT-116 colon
MDA-MB-435 melanoma = test system: MDA-MB-435 melanoma
MDA-MB-468 breast = test system: MDA-MB-468 breast
HCC-2998 colon = test system: HCC-2998 colon
LOX IMVI melanoma = test system: LOX IMVI melanoma
NCI-H322M lung = test system: NCI-H322M lung
MCF7 breast = test system: MCF7 breast
OVCAR-3 ovarian = test system: OVCAR-3 ovarian
MOLT-4 leukemia = test system: MOLT-4 leukemia
HT29 colon = test system: HT29 colon
SW-620 colon = test system: SW-620 colon
SNB-75 CNS = test system: SNB-75 CNS
KM12 colon = test system: KM12 colon
NCI-H226 lung = test system: NCI-H226 lung
SF-539 CNS = test system: SF-539 CNS
A498 renal = test system: A498 renal
M14 melanoma = test system: M14 melanoma
COLO 205 colon = test system: COLO 205 colon
A549 NSCLC = test system: A549 NSCLC
OVCAR-4 ovarian = test system: OVCAR-4 ovarian
HCT-15 colon = test system: HCT-15 colon
SF-295 CNS = test system: SF-295 CNS
SN12C renal = test system: SN12C renal
OVCAR-8 ovarian = test system: OVCAR-8 ovarian
HOP-92 NSCLC = test system: HOP-92 NSCLC
MALME-3M melanoma = test system: MALME-3M melanoma
EKVX NSCLC = test system: EKVX NSCLC
K-562 leukemia = test system: K-562 leukemia
MDA-MB-231 breast = test system: MDA-MB-231 breast
RXF 393 renal = test system: RXF 393 renal
HL-60(TB) leukemia = test system: HL-60(TB) leukemia
HOP-62 NSCLC = test system: HOP-62 NSCLC
ACHN renal = test system: ACHN renal
IGROV1 ovarian = test system: IGROV1 ovarian
U251 glioblastoma = test system: U251 glioblastoma
UO-31 renal = test system: UO-31 renal
HS 578T breast = test system: HS 578T breast
SK-OV-3 ovarian = test system: SK-OV-3 ovarian
NCI-H522 lung = test system: NCI-H522 lung
TK-10 renal = test system: TK-10 renal
NCI-H460 NSCLC = test system: NCI-H460 NSCLC
NCI-H23 lung = test system: NCI-H23 lung
CAKI-1 renal = test system: CAKI-1 renal
SF-268 CNS = test system: SF-268 CNS
SK-MEL-5 melanoma = test system: SK-MEL-5 melanoma
RPMI-8226 leukemia = test system: RPMI-8226 leukemia
BT-549 breast = test system: BT-549 breast

COC[C@H]1OC(=O)c2coc3c2[C@@]1(C)C1=C(C3=O)[C@@H]2CCC(=O)[C@@]2(C)C[C@H]1OC(C)=O
GI50 (T-47D breast): 4.32 µM | TGI (T-47D breast): 60.3 µM | GI50 (SR leukemia): 1.28 µM | TGI (SR leukemia): 4.28 µM | GI50 (SK-MEL-28 melanoma): 9.73 µM | TGI (SK-MEL-28 melanoma): > 100 µM | GI50 (PC-3 prostate): 1.44 µM | TGI (PC-3 prostate): > 100 µM | GI50 (NCI/ADR-RES ovarian): 25 µM | TGI (NCI/ADR-RES ovarian): > 100 µM | GI50 (CCRF-CEM leukemia): 7.05 µM | TGI (CCRF-CEM leukemia): 30.6 µM | GI50 (OVCAR-5 ovarian): 15.4 µM | TGI (OVCAR-5 ovarian): > 100 µM | GI50 (UACC-257 melanoma): 13.6 µM | TGI (UACC-257 melanoma): > 100 µM | GI50 (SNB-19 CNS): 50.2 µM | TGI (SNB-19 CNS): > 100 µM | GI50 (DU-145 prostate): 25.2 µM | TGI (DU-145 prostate): > 100 µM | GI50 ([…]-0 renal): 26.3 µM | TGI (786-0 renal): > 100 µM | GI50 (HCT-116 colon): 16.8 µM | TGI (HCT-116 colon): > 100 µM | GI50 (MDA-MB-435 melanoma): 24.7 µM | TGI (MDA-MB-435 melanoma): > 100 µM | GI50 (MDA-MB-468 breast): 1.46 µM | TGI (MDA-MB-468 breast): 7.84 µM | GI50 (HCC-2998 colon): 3.91 µM | TGI (HCC-2998 colon): 44.6 µM | GI50 (LOX IMVI melanoma): 21.1 µM | TGI (LOX IMVI melanoma): > 100 µM | GI50 (NCI-H322M lung): 6.91 µM | TGI (NCI-H322M lung): > 100 µM | GI50 (MCF7 breast): 1.34 µM | TGI (MCF7 breast): > 100 µM | GI50 (OVCAR-3 ovarian): 2.74 µM | TGI (OVCAR-3 ovarian): 32.1 µM | GI50 (MOLT-4 leukemia): 2.3 µM | TGI (MOLT-4 leukemia): 13.6 µM | GI50 (HT29 colon): 7.88 µM | TGI (HT29 colon): > 100 µM | GI50 (SW-620 colon): 28.8 µM | TGI (SW-620 colon): > 100 µM | GI50 (SNB-75 CNS): 1.34 µM | TGI (SNB-75 CNS): 11.7 µM | GI50 (KM12 colon): 15.4 µM | TGI (KM12 colon): > 100 µM | GI50 (NCI-H226 lung): 12.5 µM | TGI (NCI-H226 lung): > 100 µM | GI50 (SF-539 CNS): 22.5 µM | TGI (SF-539 CNS): > 100 µM | GI50 (A498 renal): 4.52 µM | TGI (A498 renal): 54.3 µM | GI50 (M14 melanoma): 18.2 µM | TGI (M14 melanoma): > 100 µM | GI50 (COLO 205 colon): 26.7 µM | TGI (COLO 205 colon): > 100 µM | GI50 (A549 NSCLC): 7.24 µM | TGI (A549 NSCLC): > 100 µM | GI50 (OVCAR-4 ovarian): 2.36 µM | TGI (OVCAR-4 ovarian): > 100 µM | GI50 (HCT-15 colon): 11.4 µM | TGI (HCT-15 colon): > 100 µM | GI50 (SF-295 CNS): 7.25 µM | TGI (SF-295 CNS): > 100 µM | GI50 (SN12C renal): 11 µM | TGI (SN12C renal): > 100 µM | GI50 (OVCAR-8 ovarian): 14.7 µM | TGI (OVCAR-8 ovarian): > 100 µM | GI50 (HOP-92 NSCLC): 6.12 µM | TGI (HOP-92 NSCLC): > 100 µM | GI50 (MALME-3M melanoma): 3.9 µM | TGI (MALME-3M melanoma): 42.4 µM | GI50 (EKVX NSCLC): 5.6 µM | TGI (EKVX NSCLC): > 100 µM | GI50 (K-562 leukemia): 71.9 µM | TGI (K-562 leukemia): > 100 µM | GI50 (MDA-MB-231 breast): 17.6 µM | TGI (MDA-MB-231 breast): > 100 µM | GI50 (RXF 393 renal): 0.281 µM | TGI (RXF 393 renal): 1.82 µM | GI50 (HL-60(TB) leukemia): 0.975 µM | TGI (HL-60(TB) leukemia): 2.74 µM | GI50 (HOP-62 NSCLC): 10.9 µM | TGI (HOP-62 NSCLC): > 100 µM | GI50 (ACHN renal): 7.99 µM | TGI (ACHN renal): > 100 µM | GI50 (IGROV1 ovarian): 1.18 µM | TGI (IGROV1 ovarian): 11.3 µM | GI50 (U251 glioblastoma): 67.4 µM | TGI (U251 glioblastoma): > 100 µM | GI50 (UO-31 renal): 3.33 µM | TGI (UO-31 renal): > 100 µM | GI50 (HS 578T breast): 1.6 µM | TGI (HS 578T breast): 12.8 µM | GI50 (SK-OV-3 ovarian): 8.24 µM | TGI (SK-OV-3 ovarian): > 100 µM | GI50 (NCI-H522 lung): 20.3 µM | TGI (NCI-H522 lung): > 100 µM | GI50 (TK-10 renal): 12 µM | TGI (TK-10 renal): > 100 µM | GI50 (NCI-H460 NSCLC): 7.17 µM | TGI (NCI-H460 NSCLC): > 100 µM | GI50 (NCI-H23 lung): 22.1 µM | TGI (NCI-H23 lung): > 100 µM | GI50 (CAKI-1 renal): 7.96 µM | TGI (CAKI-1 renal): > 100 µM | GI50 (SF-268 CNS): 4.4 µM | TGI (SF-268 CNS): 67.9 µM | GI50 (SK-MEL-5 melanoma): 4.21 µM | TGI (SK-MEL-5 melanoma): 27.9 µM | GI50 (RPMI-8226 leukemia): 2.39 µM | TGI (RPMI-8226 leukemia): 9.89 µM | GI50 (BT-549 breast): 3.31 µM | TGI (BT-549 breast): 42.8 µM
